Assay results as given in patent US20250333418A1, “PURINE COMPOUNDS, COMPOSITIONS COMPRISING THEM AND USES THEREOF” (Novo Nordisk A/S, priority 2022, published 2025).

Columns and labels:
[1] = molecular target: T1, human CB1 receptor (Homo sapiens, UniProt P21554); test: bioSensAll β-arrestin2 plasma membrane translocation (+GRK2) BRET biosensor assay in HEK293 cells transfected with hCB1; test compound added before EC75-80 of agonist CP55,940 (100 nM); format: cell-based; details: βArrestin2 (+GRK2) BRET biosensor, vs CP55,940 100 nM (EC75-80), read-out: CB1 wt βarr2 IC50
T1 construct: expressed in transfected cells; host or cells: HEK293
Outline: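 Antagonist mode: compound at 12 concentrations up to 600 nM, then 100 nM CP55,940 3–5 min later, on hCB1-transfected HEK293 cells carrying the β-arrestin2 plasma-membrane biosensor plus GRK2. After overnight 37 °C incubation, 515/400 nm BRET ratio measured with 2 µM methoxy e-CTZ and standardized against positive/negative controls.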

[2] = molecular target: T1, human CB1 receptor; test: bioSensAll GAPL-Gi2 BRET biosensor assay in HEK293 cells transfected with hCB1; test compound added before EC75-80 of agonist CP55,940 (0.1 nM); format: cell-based; details: vs CP55,940 0.1 nM (EC75-80), read-out: CB1 wt Gi2 IC50
Outline: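 Test compounds at 12 doses up to 600 nM preceded a 0.1 nM CP55,940 challenge in hCB1/GAPL-Gi2 HEK293 cells. After overnight 37° C incubation, methoxy e-coelenterazine (2 µM final) was added and the 515/400 nm BRET ratio normalized to positive and negative controls.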

T1 sequence (P21554 whole entry): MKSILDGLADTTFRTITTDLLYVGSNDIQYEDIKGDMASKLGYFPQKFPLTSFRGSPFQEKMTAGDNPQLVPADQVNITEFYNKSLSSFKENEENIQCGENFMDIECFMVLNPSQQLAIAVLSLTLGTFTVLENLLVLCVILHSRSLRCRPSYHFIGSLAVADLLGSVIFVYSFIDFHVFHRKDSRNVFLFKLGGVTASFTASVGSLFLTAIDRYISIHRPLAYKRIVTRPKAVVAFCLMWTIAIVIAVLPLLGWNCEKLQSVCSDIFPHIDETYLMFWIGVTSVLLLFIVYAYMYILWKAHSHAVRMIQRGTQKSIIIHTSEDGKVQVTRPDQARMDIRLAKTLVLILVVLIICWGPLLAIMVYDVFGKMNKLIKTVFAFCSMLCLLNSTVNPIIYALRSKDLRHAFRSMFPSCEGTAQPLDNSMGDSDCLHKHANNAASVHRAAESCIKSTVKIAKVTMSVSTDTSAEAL

SMILES | IC50 [1] [nM] | IC50 [2] [nM]
CC(C)(O)COc1nc(N2CC(C)(O)C2)c2nc(-c3ccc(C#N)nc3)n(-c3ccc(Cl)cc3)c2n1 [Compound 112, 5-[9-(4-chlorophenyl)-6-(3-hydroxy-3-methyl-azetidin-1-yl)-2-(2-hydroxy-2-methyl-propoxy)purin-8-yl]pyridine-2-carbonitrile] | 105 | 88.3
CC(C)(O)COc1nc(N2CC(C)(C#N)C2)c2nc(-c3ccc(C#N)nc3)n(-c3ccc(Cl)cc3)c2n1 [Compound 113, 5-[9-(4-chlorophenyl)-6-(3-cyano-3-methyl-azetidin-1-yl)-2-(2-hydroxy-2-methyl-propoxy)purin-8-yl]pyridine-2-carbonitrile] | 15.5 | 7.11
COC1(C)CN(c2nc(OCC(C)(C)O)nc3c2nc(-c2ccc(C#N)nc2)n3-c2ccc(Cl)cc2)C1 [Compound 114, 5-[9-(4-chlorophenyl)-2-(2-hydroxy-2-methyl-propoxy)-6-(3-methoxy-3-methyl-azetidin-1-yl)purin-8-yl]pyridine-2-carbonitrile] | 14.1 | 3.87
Cc1cnc(-c2nc3c(N4CCC(C)(C(N)=O)CC4)nc(N(C)CCO)nc3n2-c2ccc(Cl)cc2)n1C [Compound 115, 1-(9-(4-chlorophenyl)-8-(1,5-dimethyl-1H-imidazol-2-yl)-2-((2-hydroxyethyl)(methyl)amino)-9H-purin-6-yl)-4-methylpiperidine-4-carboxamide] | 93.6 | 17.8
CN(C)c1ccc(-c2nc3c(N4CCC(C)(C(N)=O)CC4)nc(OCC(C)(C)O)nc3n2-c2ccc(Cl)cc2)cn1 [Compound 116, 1-[9-(4-chlorophenyl)-8-[6-(dimethylamino)-3-pyridyl]-2-(2-hydroxy-2-methyl-propoxy)purin-6-yl]-4-methyl-piperidine-4-carboxamide] | > 5000 | 68.8
CN1CCC[C@H]1COc1nc(N2CCC(C)(C(N)=O)CC2)c2nc(-c3ccccc3Cl)n(-c3ccc(Cl)cc3)c2n1 [Compound 117, 1-[8-(2-chlorophenyl)-9-(4-chlorophenyl)-2-[[(2S)-1-methylpyrrolidin-2-yl]methoxy]purin-6-yl]-4-methyl-piperidine-4-carboxamide] | 3.76 | 1.64
CCOC1(C(N)=O)CCN(c2nc(OCC(C)(C)O)nc3c2nc(-c2ccc(C#N)nc2)n3-c2ccc(Cl)cc2)CC1 [Compound 120, 1-[9-(4-chlorophenyl)-8-(6-cyano-3-pyridyl)-2-(2-hydroxy-2-methyl-propoxy)purin-6-yl]-4-ethoxy-piperidine-4-carboxamide] | 25.4 | 16.9
CC(C)(O)COc1nc(N2CCC(C)(C(N)=O)CC2)c2nc(-c3ccncc3Cl)n(-c3ccc(Cl)cc3)c2n1 [Compound 121, 1-[9-(4-chlorophenyl)-8-(3-chloro-4-pyridyl)-2-(2-hydroxy-2-methyl-propoxy)purin-6-yl]-4-methyl-piperidine-4-carboxamide] | 17 | 2.6
CC(C)(O)COc1nc(-c2ccc(C(F)(F)F)nc2)c2nc(-c3ccccc3Cl)n(-c3ccc(Cl)cc3)c2n1 [Compound 123] | 2.04 | 0.876
CN(CC(C)(C)O)c1nc(-c2ccc(C(F)(F)F)nc2)c2nc(-c3ccccc3Cl)n(-c3ccc(Cl)cc3)c2n1 [Compound 124] | 12.1 | 3.23
CN(CC1COC1)c1nc(-c2ccc(C(F)(F)F)nc2)c2nc(-c3ccccc3Cl)n(-c3ccc(Cl)cc3)c2n1 [Compound 125] | 16.4 | 4.99
CN(CC1(C)COC1)c1nc(-c2ccc(C(F)(F)F)nc2)c2nc(-c3ccccc3Cl)n(-c3ccc(Cl)cc3)c2n1 [Compound 126] | 20.7 | 8.07
Cc1nc(N2CCC(C)(C(N)=O)CC2)c2nc(-c3ccccc3Cl)n(-c3ccc(Cl)cc3)c2n1 [Compound 127] | 40.9 | 9.42
CN(CC(C)(C)O)c1nc(N2CC(C(N)=O)C2)c2nc(-c3ccccc3Cl)n(-c3ccc(Cl)cc3)c2n1 [Compound 128] | 39.5 | 9.52
CC1(C(N)=O)CCN(c2nc(N3CCC[C@H]3CO)nc3c2nc(-c2ccc(C#N)nc2)n3-c2ccc(Cl)cc2)CC1 [Compound 130, 1-[9-(4-chlorophenyl)-8-(6-cyano-3-pyridyl)-2-[(2S)-2-(hydroxymethyl)pyrrolidin-1-yl]purin-6-yl]-4-methyl-piperidine-4-carboxamide] | 1.2 | 0.592
CC1(C(N)=O)CCN(c2nc(N3CC[C@@H](O)C3)nc3c2nc(-c2ccc(C#N)nc2)n3-c2ccc(Cl)cc2)CC1 [Compound 131, 1-[9-(4-chlorophenyl)-8-(6-cyano-3-pyridyl)-2-[(3R)-3-hydroxypyrrolidin-1-yl]purin-6-yl]-4-methyl-piperidine-4-carboxamide] | 2.95 | 0.713
CCOC1(C(N)=O)CCN(c2nc(NCC(C)(C)O)nc3c2nc(-c2ccc(C#N)nc2)n3-c2ccc(Cl)cc2)CC1 [Compound 132, 1-[9-(4-chlorophenyl)-8-(6-cyano-3-pyridyl)-2-[(2-hydroxy-2-methyl-propyl)amino]purin-6-yl]-4-ethoxy-piperidine-4-carboxamide] | > 5000 | 17.8
CCOC1(C(N)=O)CCN(c2nc(N3CCC[C@H]3CO)nc3c2nc(-c2ccc(C#N)nc2)n3-c2ccc(Cl)cc2)CC1 [Compound 133, 1-[9-(4-chlorophenyl)-8-(6-cyano-3-pyridyl)-2-[(2S)-2-(hydroxymethyl)pyrrolidin-1-yl]purin-6-yl]-4-ethoxy-piperidine-4-carboxamide] | 1.8 | 0.673

SMILES | IC50 [1] [nM] | IC50 [2] [nM]
CC(C)OC1(C(N)=O)CCN(c2nc(OCC(C)(C)O)nc3c2nc(-c2ccc(C#N)nc2)n3-c2ccc(Cl)cc2)CC1 [Compound 135] | 11.7 | 2.3
CC(C)OC1(C(N)=O)CCN(c2nc(N3CCC[C@H]3CO)nc3c2nc(-c2ccc(C#N)nc2)n3-c2ccc(Cl)cc2)CC1 [Compound 136, 1-[9-(4-chlorophenyl)-8-(6-cyano-3-pyridyl)-2-[(2S)-2-(hydroxymethyl)pyrrolidin-1-yl]purin-6-yl]-4-isopropoxy-piperidine-4-carboxamide] | 1.75 | 0.848
CC(C)(O)COc1nc(N2CC(C)(C(N)=O)C2)c2nc(-c3ccc(C#N)nc3)n(-c3ccc(Cl)cc3)c2n1 [Compound 138] | > 5000 | 34.1
CCOC1(C(N)=O)CN(c2nc(OCC(C)(C)O)nc3c2nc(-c2ccc(C#N)nc2)n3-c2ccc(Cl)cc2)C1 [Compound 139, 1-[9-(4-chlorophenyl)-8-(6-cyano-3-pyridyl)-2-(2-hydroxy-2-methyl-propoxy)purin-6-yl]-3-ethoxy-azetidine-3-carboxamide] | 58.8 | 7.55
N#Cc1ccc(-c2nc3c(N4CC(C(N)=O)C4)nc(N4CCC[C@H]4CO)nc3n2-c2ccc(Cl)cc2)cn1 [Compound 140] | 8.69 | 1.22
CCNC1(C(N)=O)CCN(c2nc(NCCO)nc3c2nc(-c2ccccc2Cl)n3-c2ccc(Cl)cc2)CC1 [Compound 141] | 2.28 | 0.982
CCNC1(C(N)=O)CCN(c2nc(OCCO)nc3c2nc(-c2ccccc2Cl)n3-c2ccc(Cl)cc2)CC1 [Compound 142] | 2.6 | 0.892
CCNC1(C(N)=O)CCN(c2nc(N3CCC[C@H]3CO)nc3c2nc(-c2ccccc2Cl)n3-c2ccc(Cl)cc2)CC1 [Compound 143] | 1.59 | 0.837
CCNC1(C(N)=O)CCN(c2nc(Cl)nc3c2nc(-c2ccccc2Cl)n3-c2ccc(Cl)cc2)CC1 [Compound 144, 1-(2-chloro-8-(2-chlorophenyl)-9-(4-chlorophenyl)-9H-purin-6-yl)-4-(ethylamino)piperidine-4-carboxamide] | 6.22 | 1.35
CCNC1(C(N)=O)CCN(c2nc(NC(C)=O)nc3c2nc(-c2ccccc2Cl)n3-c2ccc(Cl)cc2)CC1 [Compound 145] | 3 | 0.973
CCNC1(C(N)=O)CCN(c2nc(C#N)nc3c2nc(-c2ccccc2Cl)n3-c2ccc(Cl)cc2)CC1 [Compound 146, 1-(8-(2-chlorophenyl)-9-(4-chlorophenyl)-2-cyano-9H-purin-6-yl)-4-(ethylamino)piperidine-4-carboxamide] | 1.62 | 0.718
CCNC1(C(N)=O)CCN(c2nc(C(N)=O)nc3c2nc(-c2ccccc2Cl)n3-c2ccc(Cl)cc2)CC1 [Compound 147, 6-(4-carbamoyl-4-(ethylamino)piperidin-1-yl)-8-(2-chlorophenyl)-9-(4-chlorophenyl)-9H-purine-2-carboxamide] | 88.8 | 4.1
CCNC1(C(N)=O)CCN(c2nc(N(C)CCO)nc3c2nc(-c2ccccc2Cl)n3-c2ccc(Cl)cc2)CC1 [Compound 148] | 1.49 | 1
CCNC1(C(N)=O)CCN(c2nc(N)nc3c2nc(-c2ccccc2Cl)n3-c2ccc(Cl)cc2)CC1 [Compound 149] | > 5000 | 8.93
CCNC1(C(N)=O)CCN(c2nc(N3CCCCC3)nc3c2nc(-c2ccccc2Cl)n3-c2ccc(Cl)cc2)CC1 [Compound 150] | 8.17 | 2.67
CCNC1(C(N)=O)CCN(c2nc(NCc3ccccc3)nc3c2nc(-c2ccccc2Cl)n3-c2ccc(Cl)cc2)CC1 [Compound 151] | 12.9 | 4.46
CCNC1(C(N)=O)CCN(c2nc(-n3ccnc3)nc3c2nc(-c2ccccc2Cl)n3-c2ccc(Cl)cc2)CC1 [Compound 152] | 1.2 | 0.716
